# Measured values published in PMC7619385 (ACS infectious diseases, 2025).
# Read-outs that look alike come from different tables or passages of the source.
# Biological target: T1, LmxCLK1 (Leishmania mexicana, UniProt E9AMP2)
# T1 sequence (E9AMP2 1-422): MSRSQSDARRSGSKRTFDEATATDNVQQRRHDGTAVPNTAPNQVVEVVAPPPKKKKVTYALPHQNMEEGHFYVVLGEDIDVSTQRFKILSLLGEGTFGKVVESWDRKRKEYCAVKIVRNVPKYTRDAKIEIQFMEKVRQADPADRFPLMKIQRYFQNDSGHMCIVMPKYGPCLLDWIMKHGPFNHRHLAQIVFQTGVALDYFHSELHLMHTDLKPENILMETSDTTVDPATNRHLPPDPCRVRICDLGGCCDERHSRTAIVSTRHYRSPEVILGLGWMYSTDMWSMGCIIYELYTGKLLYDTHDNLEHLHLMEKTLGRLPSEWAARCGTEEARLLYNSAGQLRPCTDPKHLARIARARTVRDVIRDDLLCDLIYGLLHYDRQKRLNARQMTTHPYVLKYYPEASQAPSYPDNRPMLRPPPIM
# Experiment: biochemical
# Assay type: binding
# [1] = DSF, 10 µM compound, 2 µM LmxCLK1, Run 1
# [2] = DSF, 10 µM compound, 2 µM LmxCLK1, Run 2
# [3] = DSF, 10 µM compound, 2 µM LmxCLK1, mean of two runs
# [4] = DSF, 10 µM compound, 2 µM LmxCLK1, Run 1, read-out: ΔTm Run 1
# [5] = DSF, 10 µM compound, 2 µM LmxCLK1, Run 2, read-out: ΔTm Run 2
# [6] = DSF, 10 µM compound, 2 µM LmxCLK1, mean of two runs, read-out: ΔTm Average
Compound,ΔTm Run 1 [1] [°C],ΔTm Run 2 [2] [°C],ΔTm Average [3] [°C],further results
CC1(COc2ccc3c(c2)ncn3-c2ccc3cccc(N4CCC(N)CC4)c3n2)COC1 [Crenolanib (CP-868596)],0.5,-0.1,0.2,
CO[C@H]1C[C@@H]2CC[C@@H](C)[C@@](O)(O2)C(=O)C(=O)N2CCCC[C@H]2C(=O)O[C@H]([C@H](C)C[C@@H]2CC[C@@H](OP(C)(C)=O)[C@H](OC)C2)CC(=O)[C@H](C)/C=C(\C)[C@@H](O)[C@@H](OC)C(=O)[C@H](C)C[C@H](C)/C=C/C=C/C=C/1C [Ridaforolimus (Deforolimus)],0.0,0.0,0.0,
CNC(=O)CN1CCC(Oc2cc3c(Nc4cccc(Cl)c4F)ncnc3cc2OC)CC1 [AZD8931 (Sapitinib)],-0.1,-0.2,-0.1,
O=C(Nc1cccc(Nc2ncc(Br)c(NCCc3cnc[nH]3)n2)c1)N1CCCC1 [BX-912],0.2,0.2,0.2,
COc1cc2/c(=N/c3ccc(Br)cc3F)nc[nH]c2cc1OCC1CCN(C)CC1 [Vandetanib (ZD6474)],0.0,-0.1,-0.1,
O=C(NC[C@H](O)CO)c1ccncc1Nc1ccc(I)cc1F [Pimasertib (AS-703026)],0.2,-0.1,0.0,
CNc1nc(-c2ccc3c(N)n[nH]c3c2)cc(N2C[C@@H](C(=O)NC3CCCCC3)CC[C@H]2C)n1 [GSK2334470],,,,ΔTm at 10 µM [4]: 0.3 °C; ΔTm at 10 µM [5]: -0.5 °C; ΔTm at 10 µM [6]: -0.1 °C
Cc1cc(Nc2nc(N[C@@H](C)c3ncc(F)cn3)ncc2Cl)n[nH]1 [AZD1480],,,,ΔTm at 10 µM [4]: 0.6 °C; ΔTm at 10 µM [5]: 0.5 °C; ΔTm at 10 µM [6]: 0.6 °C
CC(C)c1cnn2c(NCc3ccccc3)cc(NCCCCCCN)nc12.Cl [BS-181 HCl],-0.3,-0.2,-0.3,
Cc1nc(NC(=O)N2CCC[C@H]2C(N)=O)sc1-c1csc(C(C)(C)C)n1 [A66],,,,ΔTm Average: 0 °C; ΔTm Run 1: 0.4 °C; ΔTm Run 2: -0.3
CN1CCN(c2ccc3nc(-c4c(N)c5c(F)cccc5[nH]c4=O)[nH]c3c2)CC1 [Dovitinib (TKI-258)],0.5,0.2,0.3,
CO[C@H]1C[C@@H]2CC[C@@H](C)[C@@](O)(O2)C(=O)C(=O)N2CCCC[C@H]2C(=O)O[C@H]([C@H](C)C[C@@H]2CC[C@@H](OC(=O)C(C)(CO)CO)[C@H](OC)C2)CC(=O)[C@H](C)/C=C(\C)[C@@H](O)[C@@H](OC)C(=O)[C@H](C)C[C@H](C)/C=C/C=C/C=C/1C [Temsirolimus (CCI-779)],-0.1,-0.3,-0.2,
COc1ccc(F)c(F)c1C(=O)c1cnc(NC2CCN(S(C)(=O)=O)CC2)nc1N [R547],,,,ΔTm Average: -0.2; ΔTm Run 1: 0 °C; ΔTm Run 2: -0.4
CO[C@H]1C[C@@H]2CC[C@@H](C)[C@@](O)(O2)C(=O)C(=O)N2CCCC[C@H]2C(=O)O[C@H]([C@H](C)C[C@@H]2CC[C@@H](OCCO)[C@H](OC)C2)CC(=O)[C@H](C)/C=C(\C)[C@@H](O)[C@@H](OC)C(=O)[C@H](C)C[C@H](C)/C=C/C=C/C=C/1C [Everolimus (RAD001)],0.2,-0.2,0.0,
CA75 (GAK),,,,ΔTm Average: -0.1; ΔTm Run 1: -0.2; ΔTm Run 2: 0 °C
COc1ccc(CNC(=O)Nc2ncc([N+](=O)[O-])s2)cc1 [AR-A014418],0.0,-0.1,-0.1,
CN1CCC(CNc2ccc3ncc(-c4cccc(OC(F)(F)F)c4)n3n2)CC1 [SGI-1776 free base],0.7,0.5,0.6,
NC(=O)c1ccc(N(C(N)=O)c2c(F)cccc2F)nc1-c1ccc(F)cc1F [VX-702],,,,ΔTm at 10 µM [4]: 0.3 °C; ΔTm at 10 µM [5]: -0.2 °C; ΔTm at 10 µM [6]: 0 °C
O=C1NCCc2[nH]c(-c3ccncc3)cc21 [PHA-767491],0.7,1.3,1.0,
CC(O)C(=O)O.CC(O)C(=O)O.CN1CCN(c2ccc3nc(-c4c(N)c5c(F)cccc5[nH]c4=O)[nH]c3c2)CC1 [Dovitinib (TKI-258) Dilactic Acid],-0.5,-0.4,-0.4,
CO[C@@H](C(=O)N1Cc2n[nH]c(NC(=O)c3ccc(N4CCN(C)CC4)cc3)c2C1)c1ccccc1 [Danusertib (PHA-739358)],,,,ΔTm at 10 µM [4]: 0.3 °C; ΔTm at 10 µM [5]: 0.1 °C; ΔTm at 10 µM [6]: 0.2 °C
COc1cc2c(Oc3ccc(NC(=O)C4(C(=O)Nc5ccc(F)cc5)CC4)cc3F)ccnc2cc1OCCCN1CCOCC1 [Foretinib (GSK1363089)],0.4,-0.4,0.0,
